# Entries after “also recorded” stand apart in the source; their conditions may differ.
# B1: 25 kDa amelogenin: most abundant uncleaved porcine amelogenin polypeptide (protein, UniProt P45561 17-189, looked up)
# Amelogenin: MPLPPHPGHPGYINFSYEVLTPLKWYQNMIRHPYTSYGYEPMGGWLHHQIIPVVSQQTPQSHALQPHHHIPMVPAQQPGIPQQPMMPLPGQHSMTPTQHHQPNLPLPAQQPFQPQPVQPQPHQPLQPQSPMHPIQPLLPQPPLPPMFSMQSLLPDLPLEAWPATDKTKREEVD
# B2: 17 kDa sheath protein: Porcine 17 kDa sheath protein, N-terminal cleavage product of sheathlin containing 170 amino acids (protein, listed as Sus scrofa)
# chain: VPAFPRQPGTPGVASLSLETMRQLGSLQGLNMLSQYSRFGFGKSFNSLWMHGLLPPHSSFQWMRPREHETQQYEYSLPVHPPPLPSQPSLQPQQPGQKPFLQPTVVTSIQNPVQKGVPQPPIYQGHPPLQQVEGPMVQQQVAPSEKPPEAELPGLDFADPQDPSMFPIAR
# modifications: porcine sheath protein
# notes: Porcine 17 kDa sheath protein, N-terminal cleavage product of sheathlin containing 170 amino acids
# B3: 15 kDa sheath protein: N-terminal cleavage product of sheathlin containing 130 amino acids, lacks C-terminal 40 amino acids of 17 kDa sheath protein (protein)
# chain: VPAFPRQPGTPGVASLSLETMRQLGSLQGLNMLSQYSRFGFGKSFNSLWMHGLLPPHSSFQWMRPREHETQQYEYSLPVHPPPLPSQPSLQPQQPGQKPFLQPTVVTSIQNPVQKGVPQPPIYQGHPPLQ
# Legend:
# [1] = system: human periodontal ligament (HPDL) cells; assay: ALP inducing activity of HPDL cells on cell culture system; format: cell-based; conditions: for ALP inducing activity of HPDL cells (amelogenins and peptides based on 6 kDa amelogenin): purified porcine amelogenins and synthetic peptides; for ALP activity of HPDL cells (porcine sheath proteins and synthetic peptides): 50 μg/ml protein or peptide, TGF-β1 50 ng/ml, BMP-2 500 ng/ml, 10 nM 1α-25dihydroxy-Vitamin D3
# Source text: Human periodontal ligament (HPDL) cells were obtained according to the method of Somerman et al., (1988) from healthy premolars which were extracted from the patients for orthodontic reasons. The cells were precultured for 4-6 passages with a-MEM medium to establish the primary cell line. The cells were maintained in the alpha modification of Eagle's medium (α-MEM; Life Technologies, Grand Island, N.Y., USA) containing 10% fetal bovine serum (FBS; Asahi Technoglass, Chiba, Japan) and 1% antibiotics (100 U/ml of Penicillin-G and 100 μg/ml of Streptomycin sulfate; Gibco BRL, Grand Island, N.Y., USA) at 37° C. in a humidified 5% CO2 atmosphere. The ST2 cells (Riken Cell Bank, Tsukuba, Japan), an osteoblast-like mouse bone marrow stromal cell line, were cultured under the same conditions.
# HPDL cells were distributed in 96-well plates at a density of approximately 5×10^5 cells per a well and incubated for 24 h. The growth medium was then changed to contain 10 nM of 1α-25dihydroxy-Vitamin D3 (CALBIOCHEM, La Jolla, Calif.) and 50 μg/ml (final concentration) of fractionated enamel protein samples or synthesized peptides dissolved in ultrapure water. After 96 additional hours of incubation, the cells were washed once with PBS, and ALP activity was determined after a 10 min incubation at 37° C. in 10 mM p-nitrophenylphosphate (substrate) in 100 mM 2-amino-2-methyl-1,3-propanediol-HCl buffer (pH 10.0) containing 5 mM MgCl2. After adding 0.2 M NaOH, which stopped the reaction, the absorbance at 405 nm was read on a plate reader.
# HPDL cells of approximately 5×10^5 cells per well were distributed in 96-well plates and incubated for 24 h. The growth medium was then changed to contain 10 nM of 1α-25dihydroxy-Vitamin D3 and 50 μg/ml (final concentration) of purified sheath protein or synthesized peptide. After 96 additional hours of incubation, ALP activity was determined using p-nitrophenylphosphate as a substrate.
# The bioactivities of these synthetic peptides were tested their cytodifferentiation activity of HPDL cells and ST2 cells by determination of increasing ALP inducing activity on cell culture system. When these peptides applied in cell culture system, the concentration of their peptides was employed around 1 ng/ml. In the case of TGF-1, the concentration was 10 ng/ml.
# Normal human periodontal ligament fibroblasts were maintained in an α-minimal essential medium (α-MEM) containing 10% fetal bovine serum, either with or without 10 nM 1α-25dihydroxy-vitamin D3 and 1% antibiotics (100 U/mL of penicillin G and 100 μg/mL of streptomycin sulfate) at 37° C. in a humidified atmosphere of air containing 5% CO2. Another cell line, ST2 cells, was obtained from an osteoblast-like mouse bone marrow stromal cell line. These cells were cultured in the same conditions as those described above.
# The ALP inducing activities of synthetic peptides using the cell culture of HPDL cells and ST2 cells were examined. The HPDL cells were distributed in 96-well plates at a density of approximately 5×10^5 cells per well and incubated for 24 h. The medium was then changed to α-MEM containing 10 nM of 1α-25dihydroxy-vitamin D3 and either synthetic peptides or growth factors dissolved in ultra-pure water. After 96 h of incubation, the cells were washed once with phosphate-buffered saline, and 10 mM ρ-nitrophenylphosphate in 100 mM 2-amino-2-methel-1,3-propanediol-HCl buffer (pH 10.0) containing 5 mM MgCl2 was added. The ALP activity was determined after 10 min incubation at 37° C. and the absorbance at 405 nm was read using a plate reader, after adding 0.2 M NaOH to stop the reaction. […] When the synthetic peptides were applied in the cell culture system, their final concentrations were 25 or 50 μg/mL. A TGF-β1 receptor inhibitor (SB431542, 10 μM) was applied to the HPDL cell culture system to examine their influence relative to the ALP inducing activity of the synthetic peptides.
# [2] = system: buccal dehiscence type bone defects created along the roots of the canine mandibular premolars; assay: Cementum regeneration (CR) activity, eight-week histological analysis on buccal dehiscence model of dogs; format: in vivo, beagle dogs; conditions: for thickness of regenerated cementum: eight weeks following application, measured at 3 points (apical, middle, coronal), beagle dogs; for CR (cementum regeneration) activity: histological analysis eight weeks after application, buccal dehiscence model of dogs
# Method: Approximately 2-year-old male beagle dogs (approximate 15 kg) were used to detect the CR activities after the applications of several enamel protein samples. They had intact dentition and a healthy periodontium. The surgical preparation of buccal dehiscence type bone defects was carried out according to the modified method of Hammarström (1997) under general anesthesia induced and maintained by an endotracheal tube with 1.5-2.0% of halothane (Takeda Yakuhin Co. LTD, Osaka, Japan) in 100% oxygen, after premedicated with intramuscular injection of the mixture of Ketamine HCl (9.8 mg/kg: Sankyo Co. LTD, Tokyo, Japan) and Xylazine HCl (0.7 mg/kg: Bayer Co. LTD, Tokyo, Japan).
# Contralateral buccal mucoperiosteal flaps were raised after an intracrevicular incision extending from the first mandibular premolar to the first mandibular molar. After the removing the buccal alveolar bone plate covering the mesial root of the second premolars, the exposed periodontal ligament and cementum of these areas were completely removed by means of a dental bur. At the apical end of the defect, a notch was created to identify the apical extension of the defect, when histological analyses. The distance between the cervical margin and the apical end of the defect was standardized at about 5 mm. The exposed root dentin surfaces were conditioned for 2 min with cotton pellets soaked in a 19% EDTA solution, and then carefully rinsed with sterile saline. Then 50 μg of each enamel protein sample in 100 μl of cold sterile distilled water was applied over the entire buccal surface area of the exposed roots. Finally, the mucoperiosteal flaps were repositioned to their level prior to surgery and sutured. Distilled water was used as a negative control and EMDOGAIN® (BIORA AB, Malmö, Sweden) served as a positive control.
# After 8 weeks the dogs were terminated by anesthetization with sodium pentobarbital. Their heads were fixed by perfusion with 0.1 M sodium cacodylate buffer (pH 7.4) containing 4% paraformaldehyde and 1% glutaraldehyde. Tissue blocks, which included teeth, bone, and tissue were dissected and demineralized in 10% formic acid containing 0.06 M sodium citrate and 0.1 M citric acid. All specimens were dehydrated using a graded series of alcohols and then embedded in paraffin. Serial sections (5 μm thick) were made and stained with hematoxylin/eosin for examination by light microscopy.
# The length and thickness of cementums regenerated after application of fractionated and purified enamel protein samples and EMD were measured on the computer monitor of histological results. The length of the regenerated cementum was straight distance between the apical end of the defect and coronal extention of the new cementum, as well as to the crest of the new alveolar bone. Also, the thickness of cementum was measured at coronal end, apical end and between them.
# CR promoting activity of enamel proteins obtained at each extracted and purified step were examined by eight-week histological analysis of buccal dehiscence type bone defects created along the roots of canine mandible (FIG. 1).
molecule,measurement,setting,value
SDKPPKPELPVDF (13 aa from 144 to 156 in sequence 36; listed as Homo sapiens) [H-2′],ALP inducing activity of HPDL cells (Example 4),"[1]; peptides 50 μg/mL, TGF-β1 1 ng/mL, BMP-2 1 μg/mL, 10 nM 1α-25dihydroxy-vitamin D3, 96 h",showed the same inductive properties
"A-1-1: shorter peptide synthesized based on the sequence of A-1 (MPLPPH; 6 aa from 1 to 6 in sequence 9, 14, 33 and 34; listed as Homo sapiens)","concentration at which the peptide promotes the bioactivity (ALP inducing activity of HPDL cells), high concentration",[1]; cell culture system,1 µg/mL
same,ALP inducing activity of HPDL cells (amelogenins and peptides based on 6 kDa amelogenin),[1],promote ALP inducing activity
same,ALP inducing activity of HPDL cells (amelogenins and peptides based on 6 kDa amelogenin),[1]; listed as SEQ ID NO: 6,had ALP inducing activity
"A-1-2: shorter peptide synthesized based on the sequence of A-1 (PGHPGY; 6 aa from 7 to 12 in sequence 9, 14, 33 and 34; listed as Homo sapiens)","concentration at which the peptide promotes the bioactivity (ALP inducing activity of HPDL cells), low concentration",[1]; cell culture system,10 ng/mL
same,ALP inducing activity of HPDL cells (amelogenins and peptides based on 6 kDa amelogenin),[1],promote ALP inducing activity
6 kDa amelogenin: derived from N-terminal side of 20 kDa amelogenin (MPLPPHPGHPGYINFSYEVLTPLKWYQNMIRHPYTSYGYEPMGGW; porcine 6 kDa amelogenin; listed as Sus scrofa),ALP inducing activity of HPDL cells (amelogenins and peptides based on 6 kDa amelogenin),[1],activity like TGF-β1; also recorded: strongest ALP inducing activity of HPDL cells
"A-1: N-terminal side peptide synthesized based on the sequence of 6 kDa amelogenin (MPLPPHPGHPGYINF; 15 aa from 1 to 15 in sequence 14, 33 and 34; listed as Homo sapiens)",ALP inducing activity of HPDL cells (amelogenins and peptides based on 6 kDa amelogenin),[1],showed the strong bioactivity
"NC(=O)c1ccc(-c2nc(-c3ccc4c(c3)OCO4)c(-c3ccccn3)[nH]2)cc1 [SB431542, reference compound]",ALP inducing activity of HPDL cells when adding TGF-β1 receptor inhibitor SB431542,"[1]; 10 μM SB431542, 10 nM 1α-25dihydroxy-vitamin D3",significantly inhibited the activity of TGF-β1
"C-1: 15-residue peptide, position 132-146 of porcine 17 kDa sheath protein (VEGPMVQQQVAPSEK; 15 aa from 132 to 146 in sequence 10; listed as Sus scrofa)",ALP activity of HPDL cells (porcine sheath proteins and synthetic peptides),[1]; 96 h,not so strong; also recorded: enhanced the ALP activity of the HPDL cells
"C=C1/C(=C\C=C2/CCC[C@]3(C)[C@@H]([C@H](C)CCCC(C)(C)O)CC[C@@H]23)C[C@@H](O)C[C@@H]1O [1α-25dihydroxy-vitamin D3, reference compound]",levels of ALP activity of HPDL cells by addition of 1α-25dihydroxy-vitamin D3,"[1]; 10 nM, with application of ESP synthetic peptides or TGF-β1",enhanced and stabilized
B1,ALP inducing activity of HPDL cells (amelogenins and peptides based on 6 kDa amelogenin),[1],activity like TGF-β1
B2,thickness of regenerated cementum,[2],31.77±3.78 μm
same,CR (cementum regeneration) activity,[2],"induced a thick acellular cementum; also recorded: induced thick acellular cementum near the apical end of the defect, but the CR was scarce near the coronal end; also recorded: induced a smaller area of cementum regeneration; also recorded: exhibited the CR activity"
same,CR (cementum regeneration) activity,[2]; listed as 17 kDa ESP,stronger cementum regeneration promoting activity
same,ALP activity of HPDL cells (porcine sheath proteins and synthetic peptides),[1]; 96 h,enhanced
same,ALP activity of HPDL cells (porcine sheath proteins and synthetic peptides),"[1]; 96 h, listed as 17 kDa ESP",weaker than that of TGF-β1
B3,thickness of regenerated cementum,[2],8.13±2.06 μm
same,CR (cementum regeneration) activity,[2],scarce CR activity
same,ALP activity of HPDL cells (porcine sheath proteins and synthetic peptides),[1]; 96 h,showed the increase of ALP inducing activity than that of 13 kDa sheath protein
same,ALP activity of HPDL cells (porcine sheath proteins and synthetic peptides),"[1]; 96 h, listed as 15-kDa sheath protein",not

# Source: patent US8309140B2, “Effect of porcine sheath proteins on the regeneration activity of periodontal ligament” (priority 2005, dated 2012)
